“Also recorded” adds a separate entry of the source. Values belong to the compound of their own block, whether it stands above or below them.
Experiments:
PTPRδ [1] = biological target: T1, PTPRδ (Homo sapiens, UniProt P23468); assay: Preliminary LAR-PTP inhibition assay at pH 8; format: biochemical; conditions: pH 8, 100 μM compound, 30 min preincubation
T1 sequence (P23468 1357-1612): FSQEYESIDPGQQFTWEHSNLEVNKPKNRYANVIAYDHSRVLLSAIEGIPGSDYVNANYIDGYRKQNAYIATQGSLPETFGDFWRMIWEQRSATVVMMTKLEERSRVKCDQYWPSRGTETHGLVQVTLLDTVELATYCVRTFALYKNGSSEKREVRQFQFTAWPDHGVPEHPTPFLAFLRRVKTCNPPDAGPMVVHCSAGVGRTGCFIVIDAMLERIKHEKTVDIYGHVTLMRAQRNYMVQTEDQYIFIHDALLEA
Method: The illudalogs of this invention show inhibitory activity against LAR-PTPs in preliminary assays at pH 6.5 and pH 8 (FIG. 9). In all assays, 100 μM of compound was incubated with enzyme for 30 min prior to the assay. […] This apparent pH-dependence is consistent with the postulated two-stage binding mechanism and will be investigated further. There is some variation in potency and selectivity across the analogues, although these preliminary assays are not precise enough to support quantitative conclusions.

PTPRδ [2] = biological target: T1, PTPRδ; assay: PTP panel inhibition, PTPRδ; format: biochemical; design: We maintain a library of PTP catalytic domains
LAR [3] = biological target: T2, LAR (Homo sapiens, UniProt P10586); assay: Standard phosphatase assay (DiFMUP) with LAR, pH 6.5, 22° C.
T2 sequence (P10586 1352-1607): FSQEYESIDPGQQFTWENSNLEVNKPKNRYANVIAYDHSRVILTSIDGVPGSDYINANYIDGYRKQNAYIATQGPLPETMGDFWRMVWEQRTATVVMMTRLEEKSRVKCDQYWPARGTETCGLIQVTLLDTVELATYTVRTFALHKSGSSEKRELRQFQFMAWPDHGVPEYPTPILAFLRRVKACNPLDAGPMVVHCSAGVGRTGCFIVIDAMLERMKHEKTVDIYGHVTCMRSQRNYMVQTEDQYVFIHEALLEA
Method: Enzyme activity assays are performed in black 96-well plates containing a total volume of 100 μL in each well. […] Prior to each assay, the enzyme is activated by incubating in Bis-Tris buffer (50 mM Bis-Tris pH 6.5, 100 mM NaCl, 0.01% Brij 35, 1 mM EDTA) with 5 μL of 100 mM TCEP on ice for 30 min. Buffer, enzyme, and either a DMSO control or the compound of interest are added to each well of the 96-well plate and incubated for 30 min at room temperature. After this 30-min preincubation period, the substrate DiFMUP is added to initiate the reaction. The observed fluorescence resulting from the hydrolysis of DiFMUP is measured every 60 s for 30 min in a SpectraMax M5 plate reader with excitation and emission wavelengths of 350 and 455 nm, respectively.
Assays to investigate time-dependent inhibition are performed as described in the initial inhibitory screen assays section with slight modifications. Buffer and enzyme are initially added to each well, followed by sequential addition of inhibitor starting from the longest incubation time to the shortest.
Assays to determine kobs values were performed as described in the Initial inhibitory screen assays section above with slight modification. Buffer, inhibitor and DMSO were added to each well as appropriate. Enzyme was then added to each well and allowed to incubate for the desired time, followed by addition of DiFMUP to initiate the assay.

[4] = tested on: LAR-PTP subfamily (LAR, PTPRσ, and PTPR^δ); assay: PTP panel screen, LAR-PTP subfamily; format: biochemical, human; conditions: panel also with PTP1B, SHP2, and CD45
Method: (§1) We screen illudalogs against a panel of PTPs including PTPRD, as illustrated in FIG. 16. […] Typical experimental conditions are 5-10 nM enzyme, 1-10 μM DiFMUP, and 250 nM inhibitor at 37° C.

SHP2 = biological target: T3, SHP2 (Homo sapiens, UniProt Q06124); assay: PTP panel screen, SHP2; format: biochemical; conditions: 250 nM
T3 construct: We maintain a library of PTP catalytic domains
T3 sequence (Q06124 247-517): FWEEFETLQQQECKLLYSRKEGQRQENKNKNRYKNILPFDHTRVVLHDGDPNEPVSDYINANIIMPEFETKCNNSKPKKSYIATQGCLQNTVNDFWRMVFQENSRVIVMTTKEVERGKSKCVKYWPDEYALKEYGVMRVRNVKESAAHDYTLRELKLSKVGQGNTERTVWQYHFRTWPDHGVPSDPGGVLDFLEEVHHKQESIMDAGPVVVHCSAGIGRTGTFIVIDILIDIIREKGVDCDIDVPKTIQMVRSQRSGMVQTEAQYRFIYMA
Method: as §1

PTPRD [5] = biological target: T4, PTPRD (Homo sapiens, UniProt P23468); assay: PTPRD inhibitor screen and IC50 at pH 7.5 and 37° C.; format: biochemical; conditions: 1 μM
T4 construct: We maintain a library of PTP catalytic domains
T4 sequence (P23468 1357-1612): T1 sequence (P23468 1357-1612)

PTPRD [6] = biological target: T4, PTPRD; assay: as above; format: biochemical; conditions: for PTPRD inhibition in preliminary screening assays: 1 μM and 250 nM; for IC50: pH 7.5 and 37° C.
CD45 = biological target: T5, CD45 (Homo sapiens, UniProt P08575); assay: PTP panel inhibition, CD45; format: biochemical
T5 construct: We maintain a library of PTP catalytic domains
T5 sequence (P08575 653-912): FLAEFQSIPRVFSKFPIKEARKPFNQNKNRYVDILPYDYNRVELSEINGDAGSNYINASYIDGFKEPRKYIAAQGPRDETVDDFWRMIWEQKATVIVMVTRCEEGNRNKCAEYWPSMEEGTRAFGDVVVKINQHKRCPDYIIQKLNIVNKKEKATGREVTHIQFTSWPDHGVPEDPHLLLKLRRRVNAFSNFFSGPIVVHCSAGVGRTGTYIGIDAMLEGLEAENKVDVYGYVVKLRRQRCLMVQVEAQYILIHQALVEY

[7] = Storage stability as pure substance or in DMSO; format: physicochemical; conditions: room temperature for six months
Description: As discussed above, our new synthetic approach focuses on convergent benzannulation, followed by conversion to the ortho-formyl hydroxy-lactone pharmacophore (FIG. 1). […] LiAlH4, then 6M HCl, ca. 40-70% yields of IAn compounds, which generally precipitate from aqueous acid as white crystalline solids. Intermediates 5 can be isolated for derivatization prior to acidic hydrolysis or advanced directly to the IAn compounds. Optimization is proposed and in progress. Currently, IA1 is produced in ca. 27% yield over 4 steps from 3. We have prepared >35 g of ester 2; ≥100 mg of IA1 and IA3; and ≥10 mg each of the other illudalog compounds of this invention. […] For IA1, we access β-keto amide 1a in two steps from known enal 3.^61 Other β-keto amides 1 provide parallel access to diverse illudalog cores (e.g., 1b→IA3, FIG. 1, bottom). We prepare β-keto ester 2^62 on multigram-scale using CDI-mediated decarboxylative coupling;^63 we have >35 g of 2 in stock. β-Keto ester 2 is the common building block for illudalogs prepared thus far; it comprises functional precursors to the hydroxy-lactone. The benzannulation is adapted from a known naphthol annulation.^64 The final reduction and hydrolysis sequence can be executed as a one-pot operation or with isolation of intermediate 5. Presumably, the deprotonated phenol directs reduction of the ortho-amide over the para-ester. […]

LAR [8] = biological target: T2, LAR; assay: Reversibility of LAR inhibition by dialysis; format: biochemical; design: We maintain a library of PTP catalytic domains; conditions: preliminary experiments

inhibition of PTPRδ activity (PTPRδ [2]): inhibit | selectivity for LAR compared to other PTPs (LAR [3]; 100 μM inhibitor, pH 6.5, 22 degrees Centigrade): more selective for LAR | inhibitory activity in standard phosphatase assays (LAR [3]; LAR, standard assays): inhibit | initial thermodynamic binding affinity K1 (LAR [3]; LAR, standard assays): too weak | kinetic covalent ligation rate kinact (LAR [3]; LAR, standard assays): too fast | IC50 (LAR [3]; read-out: IC50 (LAR), standard assays, pH 6.5 and 22° C.): 55 ± 6 µM
SMILES: COc1c(C=O)c2c(c3c1CC(C)(C)C3)C(=O)OC(O)C2 (stereo not drawn) [IA1-6OMe]
potency and selectivity for PTPR^δ over other LAR-PTPs (PTPRδ [1]): potent and selective for PTPR^δ over LAR and PTPR^δ

inhibition at 0.25 µM (SHP2): > 50%
SMILES: CC1(C)CCc2c(c(O)c(C=O)c3c2C(=O)OC(O)C3)C1 (stereo not drawn) [IA2-8Me2]
potency and selectivity for the LAR subfamily ([4]; listed as 15): most potent and is selective for the LAR subfamily

SMILES: CC1(C)CCc2c(O)c(C=O)c3c(c2C1)C(=O)OC(O)C3 (stereo not drawn) [IA2-9Me2]
potency and selectivity for the LAR subfamily ([4]; listed as 16): different selectivity profile within the LAR subfamily

PTPRD inhibitory activity on rescreening (PTPRD [5]): lower inhibitory activity
SMILES: CCOc1c(C=O)c2c(c3ccccc13)C(=O)OC(O)C2 (stereo not drawn) [IA3-6OEt]

PTPRD inhibitory activity on rescreening (PTPRD [5]): lower inhibitory activity
SMILES: COc1c(C=O)c2c(c3ccccc13)C(=O)OC(O)C2 (stereo not drawn) [IA3-6OMe]

PTPRD inhibition in preliminary screening assays (PTPRD [6]): potent PTPRD inhibitors
SMILES: O=Cc1c2c(c3ccc(Br)cc3c1O)C(=O)OC(O)C2 (stereo not drawn) [IA3-8Br]

PTPRD inhibition in preliminary screening assays (PTPRD [6]): potent PTPRD inhibitors
SMILES: C#Cc1ccc2c3c(c(C=O)c(O)c2c1)CC(O)OC3=O (stereo not drawn) [IA3-8C2H]

IC50 (PTPRD [6]): 51 ± 5 nM
SMILES: O=Cc1c2c(c3cc(F)c(F)cc3c1O)C(=O)OC(O)C2 (stereo not drawn) [IA3-89F]

inhibition of PTPRδ activity (PTPRδ [2]): inhibit | inhibition of CD45 activity (CD45): inhibited | stability of NMR sample in DMSO [7]: unchanged | IC50 (PTPRD [6]): 90 ± 14 nM | inhibitory activity in standard phosphatase assays (LAR [3]; LAR, standard assays): active; also recorded: inhibit
SMILES: CC1(C)Cc2c(O)c(C=O)c3c(c2C1)C(=O)OC(O)C3 (stereo not drawn) [illudalic acid, reference compound]
recovery of enzyme activity by dialysis (LAR [8]): enzyme activity cannot be recovered by dialysis
